Values quoted from earlier work, collected in patent US20210145844A1, “COMBINATION THERAPY FOR NICOTINE ADDICTION” (Amygdala Neurosciences, Inc., priority 2018, published 2021).

How the values were obtained:
[1] = target: T1, hMAO-B (Homo sapiens, UniProt P27338); details: read-out: IC50 hMAO-B
T1 sequence (P27338 1-520): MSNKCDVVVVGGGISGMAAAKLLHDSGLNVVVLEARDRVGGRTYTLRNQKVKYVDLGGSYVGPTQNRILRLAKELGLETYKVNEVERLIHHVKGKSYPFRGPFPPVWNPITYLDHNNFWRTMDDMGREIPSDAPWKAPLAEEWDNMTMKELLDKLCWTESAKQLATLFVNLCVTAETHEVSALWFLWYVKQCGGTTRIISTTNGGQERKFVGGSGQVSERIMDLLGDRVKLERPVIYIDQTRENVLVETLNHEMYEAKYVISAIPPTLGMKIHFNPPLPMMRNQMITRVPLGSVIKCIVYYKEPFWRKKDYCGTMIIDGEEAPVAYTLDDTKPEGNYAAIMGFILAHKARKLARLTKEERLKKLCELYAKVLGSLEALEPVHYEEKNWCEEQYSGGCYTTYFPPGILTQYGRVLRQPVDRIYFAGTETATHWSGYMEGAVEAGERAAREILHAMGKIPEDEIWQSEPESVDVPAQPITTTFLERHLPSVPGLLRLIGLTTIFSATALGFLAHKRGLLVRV

[2] = target: T2, hMAO-A (Homo sapiens, UniProt P21397); details: read-out: IC50 hMAO-A
T2 sequence (P21397 1-527): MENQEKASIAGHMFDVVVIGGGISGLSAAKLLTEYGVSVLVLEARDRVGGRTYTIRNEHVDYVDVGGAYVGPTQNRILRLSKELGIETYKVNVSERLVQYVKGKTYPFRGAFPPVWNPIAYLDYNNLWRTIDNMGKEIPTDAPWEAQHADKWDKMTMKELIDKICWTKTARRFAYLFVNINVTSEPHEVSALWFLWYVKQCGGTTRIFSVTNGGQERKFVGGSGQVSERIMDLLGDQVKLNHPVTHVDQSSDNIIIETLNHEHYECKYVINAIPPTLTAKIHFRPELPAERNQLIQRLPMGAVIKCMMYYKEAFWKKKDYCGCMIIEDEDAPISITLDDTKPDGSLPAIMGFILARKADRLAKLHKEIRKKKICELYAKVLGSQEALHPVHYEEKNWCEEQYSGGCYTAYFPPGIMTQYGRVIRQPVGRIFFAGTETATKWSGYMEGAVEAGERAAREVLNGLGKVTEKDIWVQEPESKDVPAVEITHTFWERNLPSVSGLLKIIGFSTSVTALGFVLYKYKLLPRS

[3] = tested on: patients
[4] = target: T3, human ALDH-2 enzyme (Homo sapiens, UniProt P05091); details: read-out: IC50 ALDH-2
T3 sequence (P05091 18-517): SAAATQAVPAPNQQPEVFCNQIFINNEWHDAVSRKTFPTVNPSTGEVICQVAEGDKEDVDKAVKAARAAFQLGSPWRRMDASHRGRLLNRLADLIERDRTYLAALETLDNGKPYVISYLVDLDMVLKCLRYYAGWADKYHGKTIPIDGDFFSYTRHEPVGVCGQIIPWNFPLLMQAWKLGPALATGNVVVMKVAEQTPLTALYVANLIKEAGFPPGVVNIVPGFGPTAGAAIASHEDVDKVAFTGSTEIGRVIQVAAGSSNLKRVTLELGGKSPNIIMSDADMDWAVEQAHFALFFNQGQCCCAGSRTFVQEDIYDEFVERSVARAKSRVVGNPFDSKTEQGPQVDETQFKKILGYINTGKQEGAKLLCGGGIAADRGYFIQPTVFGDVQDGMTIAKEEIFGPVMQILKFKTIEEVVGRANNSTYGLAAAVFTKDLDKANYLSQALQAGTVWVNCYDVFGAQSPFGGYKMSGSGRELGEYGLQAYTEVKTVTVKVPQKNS

[5] = tested on: rats
[6] = in vivo

Q: With `Cn1ccc(-c2ccc(CNC(=O)c3c(Cl)cccc3Cl)cc2)cc1=O` [(10), 2,6-dichloro-N-(4-(1-methyl-2-oxo-1,2-dihydropyridin-4-yl)benzyl)benzamide] as the compound, how does the IC50 [1] read?
A: > 130 µM

Q: What about the IC50 [2] of the same compound?
A: > 130 µM

Q: Which IC50 [1] does the source give for `O=C(NCc1ccc(-c2cc[nH]c(=O)c2)cc1F)c1c(Cl)cccc1Cl` [(13), 2,6-dichloro-N-(2-fluoro-4-(2-oxo-1,2-dihydropyridin-4-yl)benzyl)benzamide] here?
A: > 130 µM

Q: What about the IC50 [2] of the same compound?
A: > 130 µM

Q: Which results are given for `Cc1cccc(C)c1C(=O)NCc1ccc(-c2cc[nH]c(=O)c2)cc1` [(6), 2,6-dimethyl-N-(4-(2-oxo-1,2-dihydropyridin-4-yl)benzyl)benzamide]?
A: IC50 [1]: > 130 µM; IC50 [2]: > 130 µM

Q: With `O=C(O)C(O)C(O)C(=O)O.c1cnc2cc3c(cc2n1)[C@@H]1CNC[C@H]3C1` [varenicline, 7,8,9,10-tetrahydro-6,10-methano-6H-pyrazino[2,3-h][3]benzazepine] as the compound, how does the “varenicline discontinuation due to gastrointestinal side-effects” value ([3]; estimated) read?
A: 2%-8%

Q: What about the “incidence of nausea at larger doses” value ([3]; larger doses, placebo 10%) of the same compound?
A: 30%

Q: What about the “mild nausea, share of patients” value ([3]; most common side effect, smoking cessation use) of the same compound?
A: ~30 % of patients

Q: And the “incidence of nausea at smaller doses” value ([3]; smaller doses, placebo 11%)?
A: 16%

Q: For `Cc1cc(CNC(=O)c2c(Cl)cccc2Cl)ccc1-c1cc[nH]c(=O)c1` [(9), 2,6-dichloro-N-(3-methyl-4-(2-oxo-1,2-dihydropyridin-4-yl)benzyl)benzamide], which IC50 [1] is on record?
A: > 130 µM

Q: What about the IC50 [2] of the same compound?
A: > 130 µM

Q: For `O=C(NCc1ccc(-c2cc(=O)[nH]cc2F)cc1)c1c(Cl)cccc1Cl` [(14), 2,6-dichloro-N-(4-(5-fluoro-2-oxo-1,2-dihydropyridin-4-yl)benzyl)benzamide], which IC50 [1] is on record?
A: > 130 µM

Q: What about the IC50 [2] of the same compound?
A: > 130 µM

Q: For `O=C(NCc1ccc(-c2ccn(COP(=O)(O)O)c(=O)c2)cc1)c1c(Cl)cccc1Cl` [Compound (2), phosphoric acid mono-(4-{4-[(2,6-dichloro-benzoylamino)-methyl]-phenyl}-2-oxo-2H-pyridin-1-ylmethyl) ester], which IC50 [1] is on record?
A: > 130 µM

Q: And the IC50 [2]?
A: > 130 µM

Q: And the “in vivo metabolism of prodrug” value?
A: undergoes in vivo cleavage of the phosphoric acid group to yield compound (1)

Q: And the IC50 [4]?
A: > 10 µM

Q: What does the source list for `Cc1cc(-c2ccc(CNC(=O)c3c(Cl)cccc3Cl)cc2)cc(=O)[nH]1` [(7), 2,6-dichloro-N-[4-(6-methyl-2-oxo-1,2-dihydro-pyridin-4-yl)-benzyl]-benzamide]?
A: IC50 [1]: > 130 µM; IC50 [2]: > 130 µM

Q: Which results are given for `O=C(NCc1ccc(-c2cc[nH]c(=O)c2)cc1)c1c(F)cccc1F` [(11), 2,6-difluoro-N-(4-(2-oxo-1,2-dihydropyridin-4-yl)benzyl)benzamide]?
A: IC50 [1]: > 130 µM; IC50 [2]: > 130 µM

Q: With `Cc1cccc(Cl)c1C(=O)NCc1ccc(-c2cc[nH]c(=O)c2)cc1` [(5), 2-chloro-6-methyl-N-(4-(2-oxo-1,2-dihydropyridin-4-yl)benzyl)benzamide] as the compound, how does the IC50 [1] read?
A: > 130 µM

Q: What about the IC50 [2] of the same compound?
A: > 130 µM

Q: Which results are given for `O=C(NCc1ccc(-c2cc[nH]c(=O)c2)cc1)c1c(F)cccc1Cl` [(12), 2-chloro-6-fluoro-N-(4-(2-oxo-1,2-dihydropyridin-4-yl)benzyl)benzamide]?
A: IC50 [1]: > 130 µM; IC50 [2]: > 130 µM

Q: Which IC50 [1] does the source give for `COCCOc1cc(Cl)c(C(=O)NCc2ccc(-c3cc[nH]c(=O)c3)cc2)c(Cl)c1` [(3), 2,6-dichloro-4-(2-methoxyethoxy)-N-(4-(2-oxo-1,2-dihydropyridin-4-yl)benzyl)benzamide] here?
A: > 130 µM

Q: And the IC50 [2]?
A: > 130 µM

Q: For `O=C(NCc1ccc(-c2cc[nH]c(=O)c2)cc1)c1cccc(F)c1Cl` [(4), 2-chloro-3-fluoro-N-(4-(2-oxo-1,2-dihydropyridin-4-yl)benzyl)benzamide], which IC50 [1] is on record?
A: > 130 µM

Q: What about the IC50 [2] of the same compound?
A: > 130 µM

Q: With `O=C(NCc1ccc(-c2cc[nH]c(=O)c2)cc1)c1c(Cl)cccc1Cl` [Compound (1), 2,6-dichloro-N-[4-(2-oxo-1,2-dihydro-pyridin-4-yl)-benzyl]-benzamide] as the compound, how does the self-administration of nicotine [5] read?
A: suppress self-administration of nicotine in rats

Q: And the “intake of cocaine and alcohol” value [6]?
A: reduce intake of cocaine and alcohol

Q: What about the IC50 [1] of the same compound?
A: > 130 µM

Q: And the IC50 [2]?
A: > 130 µM

Q: Which IC50 [1] does the source give for `O=C(NCc1ccc(-c2cc[nH]c(=O)c2)cc1)c1c(F)ccc(F)c1Cl` [(8), 2-chloro-3,6-difluoro-N-(4-(2-oxo-1,2-dihydropyridin-4-yl)benzyl)benzamide] here?
A: > 130 µM

Q: And the IC50 [2]?
A: > 130 µM
